Test results as given in PMC9837764 (Nature Communications, 2023).
Several values for one entry are separate records, joined by “and”; a condition that tells them apart may be missing. Equal values may be shown once.

How the values were obtained:
SARS-CoV-2 Gamma VoC [1] = test system: SARS-CoV-2 Gamma VoC; parameters: species or system Syrian hamsters (Mesocricetus auratus); conditions: hamster, in vivo
IL-6 = IL-6 in supernatant of SARS-CoV-2-infected human primary monocytes; assay type: cell-based; conditions: infected monocytes, drugs at 10 µM, 24 h
Experimental: (§1) Human primary monocytes were obtained after 3 h of plastic adherence of peripheral blood mononuclear cells (PBMCs). The use of primary human cell was approved by Institutional Review Board from the Oswaldo Cruz Foundation under protocol 49971421.8.0000.5248 with signed informed consent in accordance with the Hemotherapy Service of Hospital Clementino Fraga from the Federal University of Rio de Janeiro. All volunteers were de-identified. PBMCs were isolated from healthy donors by density gradient centrifugation (Ficoll-Paque, GE Healthcare). PBMCs (2.0 × 10^6 cells) were plated onto 48-well plates (NalgeNunc) in RPMI-1640 without serum for 2–4 h. Nonadherent cells were removed, and the remaining monocytes were maintained in DMEM with 5% human serum (HS; Millipore) and penicillin/streptomycin. The purity of human monocytes was above 95%, as determined by flow cytometric analysis (FACScan; Becton Dickinson) using anti-CD3 (BD Biosciences, cat # 555342, 1:40), anti-CD16 (Southern Biotech, cat # 561313, 1:20) and APC mouse IgG2a isotype (BD Biosciences, cat # 550882, 1/40) and PE mouse IgG1 isotype (BD Biosciences, 555749, 1/20).

SARS-CoV-2 [2] = assay: Genomic and subgenomic viral RNA in infected Calu-3 cells (RT-PCR); assay type: cell-based; conditions: Calu-3, 10 µM, 48 h
SARS-CoV-2 gamma VoC [3] = test system: SARS-CoV-2 gamma VoC; parameters: species or system K18-hACE2 mice (Mus musculus); conditions: mouse, in vivo
TNF-α = TNF-α in supernatant of SARS-CoV-2-infected human primary monocytes; assay type: cell-based; conditions: infected monocytes
Experimental: as §1

SARS-CoV-2 [4] = assay: Cell-associated virus RNA in SARS-CoV-2-infected human primary monocytes; assay type: cell-based; conditions: for Cell-associated virus RNA loads, inhibition (Fig1C source data, per donor): monocytes
Experimental: as §1
Total viral RNA from a culture supernatant and/or monolayers was extracted using QIAamp Viral RNA (Qiagen®) according to the manufacturer’s instructions. Quantitative RT‒PCR was performed using GoTaq® Probe qPCR and RT-qPCR Systems (Promega) in a StepOne™ Real-Time PCR System (Thermo Fisher Scientific) ABI PRISM 7500 Sequence Detection System (Applied Biosystems). Amplifications were carried out in 25 µL reaction mixtures containing 2× reaction mix buffer, […] of each primer, 10 µM of probe, and 5 µL of RNA template. Primers, probes, and cycling conditions recommended by the Centers for Disease Control and Prevention (CDC) protocol were used to detect SARS-CoV-2[52]. The standard curve method was employed for virus quantification. For reference to the cell amounts used, the housekeeping gene RNAse P (F-5′-[…] -3′, R-5′[…] -3′, P-5′-FAM-[…] -BHQ-1-3′) was amplified. The Ct values for this target were compared to those obtained for different cell amounts, 10^7 to 10^2, for calibration.

in vivo = conditions: both sexes, mouse, mice
Experimental: For the MTD assay (OECD 425), mice (3 animals of each sex/group) were divided into five experimental groups, and the up and down procedure was applied to which 175 mg/kg was used as the first dose. […] Mortality, morbidity, body weight, food consumption, and general and detailed clinical signs of toxicity were evaluated. At necropsy, vital (brain, heart, liver, spleen, kidneys and adrenal glands) and reproductive organs (ovaries, testicles, and epididymis) were carefully removed, weighed and stored for further analysis (if necessary).

[5] = Pharmacokinetics in mouse plasma; assay type: in vivo, CD1 mice (Mus musculus); parameters: MB-905 level (Fig5A): unit not given here; conditions: for MB-905 level (Fig5A): individual animals; for k el: read-out: Ke (converted)
[6] = Pharmacokinetics and metabolites in rat plasma; assay type: in vivo, Sprague-Dawley rats (Rattus norvegicus); parameters: MB-905 in rat plasma (Fig4B source data, per animal) / MB-905 in rat plasma (Fig4A source data, per animal): unit not given here; conditions: for MB-905 in rat plasma (Fig4A source data, per animal): 1 mg/kg i.v.; for MB-905 in rat plasma (Fig4B source data, per animal): 30 mg/kg oral; for k el: read-out: Ke (converted)
[7] = both sexes, CD1, mouse, plasma, iv, mice, 3 mg/kg (i.v.)
[8] = both sexes, CD1, mouse, plasma, po, mice, 30 mg/kg (p.o.)
[9] = both sexes, CD1, mouse, plasma, po, mice, 550 mg/kg (p.o.)
[10] = both sexes, Sprague-Dawley, rat, plasma, iv, rats, 1 mg/kg (i.v.)
[11] = both sexes, Sprague-Dawley, rat, plasma, po, rats, 30 mg/kg (p.o.)

In the case of `c1coc(CNc2ncnc3[nH]cnc23)c1` [MB-905, N6-furfurylaminopurine], the “Viral RNA levels” value (SARS-CoV-2 Gamma VoC [1]) was “did not affect viral RNA levels”, the “Infectious virus titers in the lungs” value (SARS-CoV-2 Gamma VoC [1]; 140 mg/kg) was “reduced infectious virus titers in the lungs” and the “IL-6 levels in the culture supernatant (Fig1E source data, per donor)” value (IL-6) was 1.3 and 0.5 and 1.0 and 2.4 and 0.8 and 1.4 and 2.3. The “Genomic viral RNA (Fig2B source data, replicates)” value (SARS-CoV-2 [2]) was 0.2 and 0.15 and 0.1, the “Subgenomic viral RNA (Fig2B source data, replicates)” value (SARS-CoV-2 [2]) was 0.6 and 0.5 and 0.7 and the “survival event code per animal (Fig5D)” value (SARS-CoV-2 gamma VoC [3]) was 1 (4×) and 0 (2×). The Body weight (SARS-CoV-2 gamma VoC [3]; 140 mg/kg/day) was “recovered their body weight”, the Survival (SARS-CoV-2 gamma VoC [3]; 140 mg/kg/day) was “survived after two weeks” and the “SARS-CoV-2-induced TNF and IL-6 levels” value (TNF-α; 10 µM) was “diminished”. The “TNF-α levels in the culture supernatant (Fig1D source data, per donor)” value (TNF-α; drugs at 10 µM, 24 h) was 0.7 and 0.9 and 0.537 and 2.5 and 0.474 and 3.4, the “Cell-associated virus RNA levels in SARS-CoV-2-infected monocytes” value (SARS-CoV-2 [4]; Fig. 1c) was “reduced cell-associated virus RNA levels in a concentration-dependent manner” and the “Cell-associated virus RNA loads, inhibition (Fig1C source data, per donor)” value (SARS-CoV-2 [4]; 24 h, Drug 1) was 41 and 30 and 63 and 20 and 2 (2×). For the same compound, the “Cell-associated virus RNA loads, inhibition (Fig1C source data, per donor)” value (SARS-CoV-2 [4]; 24 h, Drug 10) was 93 and 42 and 46 and 13 and 6 and 12, the “Cell-associated virus RNA loads, inhibition (Fig1C source data, per donor)” value (SARS-CoV-2 [4]; MOI 0.1, 24 h, Drug 0.1) was 2 (3×) and 5 and 3 and 1 and the NOAEL (in vivo) was 500 mg/kg. For the same compound, the MTD (in vivo; oral, read-out: Recommended dose for repeated exposure (MTD assay)) was 550 mg/kg, the “MB-905 level (Fig5A)” value ([5]; 140 mg/kg, 0.25 h) was 544 and 555 and 638 and the “MB-905 level (Fig5A)” value ([5]; 140 mg/kg, 1 h) was 356 and 299 and 551. For the same compound, the “MB-905 level (Fig5A)” value ([5]; 140 mg/kg, 3 h) was 447 and 177 and 154, the “MB-905 level (Fig5A)” value ([5]; 140 mg/kg, 8 h) was 105 and 316 and 50 and the “MB-905 level (Fig5A)” value ([5]; 140 mg/kg, 12 h) was 0. The “MB-905 level (Fig5A)” value ([5]; 500 mg/kg, 0.25 h) was 1228 and 1306 and 1348, the “MB-905 level (Fig5A)” value ([5]; 500 mg/kg, 1 h) was 1348 and 946 and 1312 and the “MB-905 level (Fig5A)” value ([5]; 500 mg/kg, 3 h) was 894 and 544 and 652. For the same compound, the “MB-905 level (Fig5A)” value ([5]; 500 mg/kg, 8 h) was 833 and 340 and 437, the “MB-905 level (Fig5A)” value ([5]; 500 mg/kg, 12 h) was 103 and 13 and 0 and the AUC [5, 7] was 66.4 ng·h/mL. The AUC(0-t) [5, 7] was 55.5 ng·h/mL, the Cmax [5, 7] was 155 ng/mL and the Tmax [5, 7] was 4.98 min. It also gave a clearance [5, 7] of 918 mL/min/kg, a half-life [5, 7] of 13.2 min and a k el [5, 7] of 0.000858 s⁻¹. For the same compound, the Vd ([5]; both sexes, CD1, mouse, plasma, iv, mice, 3 mg/kg (i.v.), read-out: Vz) was 19 L/kg, the bioavailability ([5]; both sexes, CD1, mouse, plasma, po, 30 mg/kg, mice, 30 mg/kg (p.o.), read-out: F) was 53.5% and the bioavailability ([5]; both sexes, CD1, mouse, plasma, po, 30 mg/kg, mice, read-out: Oral bioavailability) was > 50%. For the same compound, the bioavailability ([5]; both sexes, CD1, mouse, plasma, po, 550 mg/kg, mice, 550 mg/kg (p.o.), read-out: F) was 36.1%, the AUC [5, 8] was 356 ng·h/mL and the AUC(0-t) [5, 8] was 356 ng·h/mL. It also gave a Cmax [5, 8] of 570 ng/mL, a Tmax [5, 8] of 4.98 min and a half-life [5, 8] of 66.6 min. For the same compound, the k el [5, 8] was 0.000172 s⁻¹, the AUC [5, 9] was 4390 ng·h/mL and the AUC(0-t) [5, 9] was 4390 ng·h/mL. It also gave a Cmax [5, 9] of 1050 ng/mL, a Tmax [5, 9] of 30 min and a half-life [5, 9] of 163 min. For the same compound, the k el [5, 9] was 6.94e-05 s⁻¹, the CL ([5]; mice, 30 mg/kg (p.o.)) was 1060.15 mL/min/kg and the Vz ([5]; mice, 30 mg/kg (p.o.)) was 102.21 L/kg. For the same compound, the CL ([5]; mice, 550 mg/kg (p.o.)) was 1843.18 mL/min/kg, the Vz ([5]; mice, 550 mg/kg (p.o.)) was 434.2 L/kg and the “MB-905 in rat plasma (Fig4A source data, per animal)” value ([6]; 0.083 h) was 122.29 and 142.1 and 107.27 and 127.39 and 93.94. The “MB-905 in rat plasma (Fig4A source data, per animal)” value ([6]; 0.25 h) was 82.46 and 129.29 and 128.28 and 120.23 and 112.61, the “MB-905 in rat plasma (Fig4A source data, per animal)” value ([6]; 0.5 h) was 65.31 and 60.03 and 69.73 and 52.81 and 69.66 and the “MB-905 in rat plasma (Fig4A source data, per animal)” value ([6]; 1 h) was 28.25 and 16.64 and 9.33 and 14.09 and 7.19 and 13.17. For the same compound, the “MB-905 in rat plasma (Fig4A source data, per animal)” value ([6]; 2 h) was 1.74 and 1.82 and 1.9 and 1.56 and 1.91, the “MB-905 in rat plasma (Fig4A source data, per animal)” value ([6]; 3 h) was 0.61 and 1.31 and 1.15 (3×) and 1.21 and the “MB-905 in rat plasma (Fig4B source data, per animal)” value ([6]; 0.25 h) was 397.32 and 362.53 and 415.61 and 353.44. For the same compound, the “MB-905 in rat plasma (Fig4B source data, per animal)” value ([6]; 1 h) was 263.22 and 231.26 and 292.83 and 229.84, the “MB-905 in rat plasma (Fig4B source data, per animal)” value ([6]; 2 h) was 88.19 and 121.59 and 183.67 and 211.01 and 229.72 and the “MB-905 in rat plasma (Fig4B source data, per animal)” value ([6]; 3 h) was 243.45 and 113.36 and 86.5 and 220.24 and 141.51. The “MB-905 in rat plasma (Fig4B source data, per animal)” value ([6]; 5 h) was 154.28 and 65.58 and 86.37 and 126.88 and 27.06, the “MB-905 in rat plasma (Fig4B source data, per animal)” value ([6]; 8 h) was 116.98 and 84.1 and 84.26 and 4.12 and 35.08 and the “MB-905 in rat plasma (Fig4B source data, per animal)” value ([6]; 12 h) was 1.46 and 1.1 and 5.1 and 3.6 and 2.01. It also gave a bioavailability ([6]; both sexes, Sprague-Dawley, rat, plasma, iv, 1 mg/kg, rats, 1 mg/kg (i.v.), read-out: F) of 100%, an AUC [6, 10] of 77.1 ng·h/mL and an AUC(0-t) [6, 10] of 77.1 ng·h/mL. The Cmax [6, 10] was 124 ng/mL, the Tmax [6, 10] was 4.98 min and the clearance [6, 10] was 214 mL/min/kg. For the same compound, the half-life [6, 10] was 33.6 min, the k el [6, 10] was 0.000342 s⁻¹ and the Vd ([6]; both sexes, Sprague-Dawley, rat, plasma, iv, rats, 1 mg/kg (i.v.), read-out: Vz) was 10.4 L/kg. For the same compound, the bioavailability ([6]; both sexes, Sprague-Dawley, rat, plasma, po, 30 mg/kg, rats, 30 mg/kg (p.o.), read-out: F) was 64.7%, the bioavailability ([6]; both sexes, Sprague-Dawley, rat, plasma, po, 30 mg/kg, rats, read-out: Oral bioavailability) was > 50% and the AUC [6, 11] was 1500 ng·h/mL. The AUC(0-t) [6, 11] was 1500 ng·h/mL, the Cmax [6, 11] was 370 ng/mL and the Tmax [6, 11] was 15 min. The half-life [6, 11] was 229 min, the k el [6, 11] was 5e-05 s⁻¹ and the CL ([6]; rats, 30 mg/kg (p.o.)) was 330.53 mL/min/kg. For the same compound, the Vz ([6]; rats, 30 mg/kg (p.o.)) was 109.18 L/kg.
